Values of other authors in US10927398B2, “Compositions for CYP450 phenotyping using saliva samples” (Concordia University, Inc., priority 2015, dated 2021).
Where two headings read alike, the source gives them in different places.

Key:
[1] = cited from earlier work
plasma protein = settings: cited from earlier work
[2] = cited from earlier work; remark: listed apart in the source
[3] = Table of Exemplary Drugs, CYP3A4
[4] = Table of Exemplary Drugs, CYP2C19
[5] = Table of Exemplary Drugs, CYP1A2
[6] = Table of Exemplary Drugs, CYP2D6

Compound | ORAL BIOAVAILABILITY [1, 3] | PLASMA PROTEIN BINDING (plasma protein; [3]) | HALF-LIFE [2, 3] | also measured
O=C1CCc2cc(OCCCCc3nnnn3C3CCCCC3)ccc2N1 [Cilostazol (Pletal), Cilostazol] | 87-100% | 95-98% ^ | 11 to 13 h | –
COc1cc(N)c(Cl)cc1C(=O)NC1CCN(CCCOc2ccc(F)cc2)CC1OC (stereo not shown) [Cisapride (Propulsid), Cisapride] | 35-65% | 98% | 6 to 12 h | –
CN(C)CCCC1(c2ccc(F)cc2)OCc2cc(C#N)ccc21 (stereo not shown) [Citalopram] | – | – | – | ORAL BIOAVAILABILITY [1, 4]: 80%; PLASMA PROTEIN BINDING (plasma protein; [4]): 80%; HALF-LIFE [2, 4]: 35 h
CC[C@H]1OC(=O)[C@H](C)[C@@H](O[C@H]2C[C@@](C)(OC)[C@@H](O)[C@H](C)O2)[C@H](C)[C@@H](O[C@@H]2O[C@H](C)C[C@H](N(C)C)[C@H]2O)[C@](C)(OC)C[C@@H](C)C(=O)[C@H](C)[C@@H](O)[C@]1(C)O [Clarithromycin (Biaxin), Clarithromycin] | 55% | Low | 4 h | –
COC(=O)[C@H](c1ccccc1Cl)N1CCc2sccc2C1 [Clopidogrel] | >50% | 94-98% ^ | 6 h | ORAL BIOAVAILABILITY [1, 4]: >50%; PLASMA PROTEIN BINDING (plasma protein; [4]): 98%
CN1CCN(C2=Nc3cc(Cl)ccc3Nc3ccccc32)CC1 [Clozapine] | – | – | – | ORAL BIOAVAILABILITY [1, 5]: 12-81%; PLASMA PROTEIN BINDING (plasma protein; [5]): 97%; HALF-LIFE [2, 5]: 4 to 66 h
COc1ccc2c3c1O[C@H]1[C@@H](O)C=C[C@H]4[C@@H](C2)N(C)CC[C@@]341 [Codeine] | – | – | – | ORAL BIOAVAILABILITY ([1]; in vivo, po): 90%; PLASMA PROTEIN BINDING (plasma protein; [6]): 7-25%^; HALF-LIFE ([2]; in vivo): 2.5 to 3 h
CN(C)CCC=C1c2ccccc2C=Cc2ccccc21 [Cyclobenzaprine] | – | – | – | ORAL BIOAVAILABILITY [1, 5]: 33-55%; PLASMA PROTEIN BINDING (plasma protein; [5]): 93%; HALF-LIFE [2, 5]: 8 to 37 h
CC(C)Nc1cccnc1N1CCN(C(=O)c2cc3cc(NS(C)(=O)=O)ccc3[nH]2)CC1 [Delavirdine (Rescriptor), Delavirdine] | 85% | 98% | 5.8 h | –
CCN[C@@H](C)Cc1cccc(C(F)(F)F)c1 [Dexfenfluramine] | – | – | – | ORAL BIOAVAILABILITY ([1]; in vivo, po): 68%; PLASMA PROTEIN BINDING (plasma protein; [6]): 36%; HALF-LIFE ([2]; in vivo): 17 to 20 h
CN1C[C@H](C(=O)N[C@]2(C)O[C@@]3(O)[C@@H]4CCCN4C(=O)[C@H](Cc4ccccc4)N3C2=O)C[C@@H]2c3cccc4[nH]cc(c34)C[C@H]21 [Dihydroergotamine] | – | – | – | ORAL BIOAVAILABILITY ([1]; in vivo, po): <32%; PLASMA PROTEIN BINDING (plasma protein; plasma): 93%; HALF-LIFE ([2]; in vivo): 9 to 10 h
COc1ccc([C@@H]2Sc3ccccc3N(CCN(C)C)C(=O)[C@@H]2OC(C)=O)cc1 [Diltiazem (Cardizem), Diltiazem] | >40% | 70-80% ^ | 3 to 6 h | –
CC(C)N(CCC(C(N)=O)(c1ccccc1)c1ccccn1)C(C)C (stereo not shown) [Disopyramide (Norpace), Disopyramide] | 80% | 50-65% ^ | 6.7 h | –
COc1cccc2c1C(=O)c1c(O)c3c(c(O)c1C2=O)C[C@@](O)(C(=O)CO)C[C@@H]3O[C@H]1C[C@H](N)[C@H](O)[C@H](C)O1 [Doxorubicin (Adriamycin), Doxorubicin] | 5% | 74-76% ^ | 20 to 48 h | –
CNCC[C@H](Oc1cccc2ccccc12)c1cccs1 [Duloxetine] | – | – | – | ORAL BIOAVAILABILITY [1, 6]: 30-80%; PLASMA PROTEIN BINDING (plasma protein; [6]): >90%; HALF-LIFE ([2]; in vivo): 12 h
C[C@]12C=CC(=O)N[C@@H]1CC[C@@H]1[C@@H]2CC[C@]2(C)[C@@H](C(=O)Nc3cc(C(F)(F)F)ccc3C(F)(F)F)CC[C@@H]12 [Dutasteride (Avodart), Dutasteride] | 60% | 99% | 5 weeks | –
CC(C)(C)c1ccc(C(=O)CCCN2CCC(OC(c3ccccc3)c3ccccc3)CC2)cc1 [Ebastine (Kestine), Ebastine] | “High” | 98% | 24.8 h | –
O=C1Nc2ccc(Cl)cc2[C@@](C#CC2CC2)(C(F)(F)F)O1 [Efavir enz (Sustiva), Efavir enz] | 40-45% | 99.5-99.75% ^ | 40 to 55 h | –
COc1ccc(C(=O)Nc2ccccc2CCC2CCCCN2C)cc1 (stereo not shown) [Encainide] | – | – | – | ORAL BIOAVAILABILITY [1, 6]: 25-90%; PLASMA PROTEIN BINDING (plasma protein; [6]): 70.5-78% ^; HALF-LIFE [2, 6]: 1.5 to 11.3 h
C#Cc1cccc(Nc2ncnc3cc(OCCOC)c(OCCOC)cc23)c1 [Erlotinib] | 60% | 93% | – | ORAL BIOAVAILABILITY [1, 5]: 60-100%; PLASMA PROTEIN BINDING (plasma protein; [5]): 93%; HALF-LIFE [2, 5]: 36.2 h
CC[C@H]1OC(=O)[C@H](C)[C@@H](O[C@H]2C[C@@](C)(OC)[C@@H](O)[C@H](C)O2)[C@H](C)[C@@H](O[C@@H]2O[C@H](C)C[C@H](N(C)C)[C@H]2O)[C@](C)(O)C[C@@H](C)C(=O)[C@H](C)[C@@H](O)[C@]1(C)O [Erythromycin] | 30-65% | 90% | 1 to 1.5 h | –
